The target in assay [1] is CHIP-PPIA ternary complex (Homo sapiens, UniProt P62937+Q9UNE7). The note with it: SPR ABA, immobilized PPIA, 10 μM Helicon.
The target in assay [2] is CHIP-TEAD4 ternary complex (Homo sapiens, UniProt Q15561+Q9UNE7). The note with it: SPR ABA, Rmax compared with expected response.
A further assay addresses VHL-ELOBC (Homo sapiens, UniProt P40337+Q15369+Q15370). The following applies: competition FP, 15 nM VHL-ELOBC, 5 nM HXC78, 1 h room temperature, n = 2.

SMILES strings stand for the structures.

On to `CC(=O)N1CCC[C@H]1C(=O)N[C@@H](C)C(=O)N[C@@H](CCC(N)=O)C(=O)N[C@@H](CC(=O)O)C(=O)N[C@@H](CC(=O)O)C(=O)N[C@@H](Cc1c[nH]c2ccccc12)C(=O)N[C@@H](CO)C(=O)N[C@H]1CSCC(=O)Nc2ccc(cc2)NC(=O)CSC[C@@H](C(=O)N[C@@H](CCC(=O)O)C(=O)N[C@@H](CC(N)=O)C(=O)N[C@@H](Cc2ccc(O)cc2)C(=O)N[C@H](C(=O)N[C@@H](CCCNC(=N)N)C(=O)N[C@H](C(N)=O)C(C)C)C(C)C)NC(=O)[C@H](CC(C)C)NC(=O)[C@H](Cc2ccc(O)cc2)NC(=O)[C@H](C)NC(=O)[C@H](C)NC(=O)[C@H](CCC(=O)O)NC(=O)[C@H](C(C)C)NC1=O` [Helicon H326], for which the “ternary complex formation with CHIP and PPIA, of the expected response” value in assay [1] turned out to be 3%.
In the case of `CC(=O)N1CCC[C@H]1C(=O)N[C@H](C(=O)N1CCC[C@H]1C(=O)N[C@@H](Cc1ccccc1)C(=O)N[C@@H](Cc1ccccc1)C(=O)N[C@@H](Cc1c[nH]c2ccccc12)C(=O)N[C@@H](CCC(=O)O)C(=O)N[C@H]1CSCC(=O)Nc2ccc(cc2)NC(=O)CSC[C@@H](C(=O)N[C@H](C(=O)N[C@@H](C)C(=O)N2CCC[C@H]2C(=O)N[C@@H](CCCNC(=N)N)C(=O)N[C@H](C(=O)N[C@@H](CCC(N)=O)C(N)=O)C(C)C)[C@@H](C)O)NC(=O)[C@H]([C@@H](C)O)NC(=O)[C@H](C)NC(=O)[C@H](C)NC(=O)[C@H](C)NC(=O)[C@H](Cc2ccccc2)NC(=O)[C@H](CCC(N)=O)NC1=O)[C@@H](C)O` [Helicon H323], the “amount of ternary complex formed, CHIP and TEAD4” value in assay [2] was 65%.
As to `Cc1ncsc1-c1ccc(CNC(=O)[C@@H]2C[C@@H](O)CN2C(=O)[C@@H](NC(=O)C2(C#N)CC2)C(C)(C)C)cc1` [VH298, (2S,4R)−1-((S)−2-(1-Cyanocyclopropanecarboxamido)−3,3-dimethylbutanoyl)−4-hydroxy-N-(4-(4-methylthiazol-5-yl)benzyl)pyrrolidine-2-carboxamide], the “competition with HXC78 for binding VHL-ELOBC” value at VHL-ELOBC is “potently competes”.
Take `CC[C@H](C)[C@H](NC(=O)[C@@H](NC(=O)CNC(=O)[C@H](CC(=O)O)NC(=O)[C@@H](NC(=O)[C@H](Cc1c[nH]c2ccccc12)NC(=O)[C@@H]1CSCC(=O)Nc2ccc(cc2)NC(=O)CSC[C@H](NC(=O)[C@H](CCSC)NC(=O)[C@@H]2CCCN2C(=O)[C@H](C)NC(=O)[C@H](CC(C)C)NC(=O)[C@H](CCSC)NC(=O)[C@H](CC(=O)O)NC(=O)[C@@H]2CCCN2C(C)=O)C(=O)NCC(=O)N2CCC[C@H]2C(=O)N[C@@H](C)C(=O)N[C@@H](C)C(=O)N[C@@H](CO)C(=O)N[C@@H]([C@@H](C)CC)C(=O)N1)[C@@H](C)CC)C(C)C)C(N)=O` [Helicon H328]: in assay [1], the “ternary complex formation with CHIP and PPIA, of the expected response” value is reported as 11%.

(Values after PMC10620186, “Recognition and reprogramming of E3 ubiquitin ligase surfaces by α-helical peptides” (Nature Communications, 2023).)
